Measurements reported in US12559750B2, “Methods and compositions for treatment of polycystic kidney disease” (Regulus Therapeutics Inc., priority 2021, dated 2026).

How the values were obtained:
AMPA glutamate receptor = test: Off-target panel, ligand binding (RGLS4326)
Procedure: To identify potential candidates for off-target pharmacology, a panel of 174 targets including G-protein coupled receptors, transporters, ion channels, nuclear receptors, and cytokine receptors was evaluated in vitro for possible interactions with RGLS4326. […] AMPA receptors are ion channels on excitatory synapses in the CNS that mediate fast excitatory neurotransmission and, therefore, are key components of all neuronal networks. Such an interaction with the AMPA receptor could explain the CNS-mediated findings observed at high doses of RGLS4326 in nonclinical toxicology models.

Swiss:Rjorl male mice = test: ICV maximum tolerated dose study for RGLS4326, Study 2; assay type: in vivo, mouse
Procedure: A second MTD study for RGL4326 by ICV was conducted to assess dose selection for evaluating the compound in disease models (Table 11). In this study, a different mouse strain was evaluated (Swiss:Rjorl male mice, age 5 weeks, sourced from Janvier). Mice were placed under isoflurane anaesthesia (5% for induction and 2% for maintenance, under 100% O2) and given 5 mg/kg s.c. carprofen (Rimadyl®). They were then placed in a stereotaxic frame. A midline sagittal incision was made in the scalp and a hole was drilled in the skull over the left lateral ventricle. A stainless-steel cannula (external diameter 0.51 mm) was placed stereotaxically into the left lateral ventricle at the following coordinates: +0.5 posterior to Bregma, L±0.7 mm, V=−2.7 mm. After a 2-minute delay to allow the brain tissue to slide over the cannula, 4 μL of a solution containing 0.625 mg/mL of RG4326 was slowly infused over 2 minutes. After infusion, the cannula was left in place for a further 5 minutes to prevent backflow of the solution along the cannula track. Mice were given 5 mg/kg s.c. carprofen (Rimadyl®) at 24 and 48 hours, after surgery. Mice were monitored during 3-7 days after surgery (starting 24 h after ICV administration) and their body weight was taken daily to check their health status. For mice monitored over 7 days, body weight was taken on Day 1 and on Day 7 after surgery to check their health status.
In Study 1, 6 mice were injected with 4 μL of a solution at 0.625 mg/mL (2.5 μg total per ICV; Table 10). At the end of anesthesia, the mice remained lying on one side. They were quiet with some periods of scratching during the first hours after surgery. […] In Study 2, four mice were injected with 4 different doses of RGLS4326 (0.75, 1.0, 1.25 and 1.875 mg/mL, volume of 4 μL). One mouse that received the highest dose (1.875 mg/mL, i.e., 7.5 μg/mouse) was found dead around 24 hours after ICV injection. All other mice were in good health, until the end of the pilot study (7 days after administration).

## ASGSCMAFCFUFUMUSGS [RGLS4326, reference compound]
AMPA glutamate receptor
  50% inhibitory concentration (IC50) based on ligand binding: 14.2 µg/mL
AMPA glutamate receptor; read-out: 50% inhibitory concentration (IC50) based on ligand binding
  IC50: 4.6 µM
Swiss:Rjorl male mice; ICV 4 μL of 0.625 mg/mL (2.5 μg total), 6 mice
  toxic effects at 24, 48 or 72 hours: No toxic effects were observed
Swiss:Rjorl male mice; single ICV 2.5 μg
  Dead/Total Mice, Study 2: 0/6
Swiss:Rjorl male mice; single ICV 3 μg, 7-day
  Dead/Total Mice, Study 2: 0/4
Swiss:Rjorl male mice; single ICV 4 μg, 7-day
  Dead/Total Mice, Study 2: 0/4
Swiss:Rjorl male mice; single ICV 5 μg, 7-day
  Dead/Total Mice, Study 2: 0/4
Swiss:Rjorl male mice; single ICV 7.5 μg, 7-day
  Dead/Total Mice, Study 2: 1/4
Swiss:Rjorl male mice; single ICV, Swiss:Rjorl mouse strain, predicted from Study 2
  MTD: ~4 µg
